Test results published in patent US8436035B2, “Organic compounds” (Novartis AG, priority 2006, dated 2013).

Experiments:
[1] = target: T1, aldosterone synthase (CYP11B2) (Homo sapiens, UniProt P19099); experiment: in vitro aldosterone synthase inhibition, aldosterone production in Ang II-stimulated NCI-H295R cells; assay type: cell-based; conditions: read-out: AS IC50
T1 construct: host or cells: NCI-H295R
T1 sequence (P19099 25-503): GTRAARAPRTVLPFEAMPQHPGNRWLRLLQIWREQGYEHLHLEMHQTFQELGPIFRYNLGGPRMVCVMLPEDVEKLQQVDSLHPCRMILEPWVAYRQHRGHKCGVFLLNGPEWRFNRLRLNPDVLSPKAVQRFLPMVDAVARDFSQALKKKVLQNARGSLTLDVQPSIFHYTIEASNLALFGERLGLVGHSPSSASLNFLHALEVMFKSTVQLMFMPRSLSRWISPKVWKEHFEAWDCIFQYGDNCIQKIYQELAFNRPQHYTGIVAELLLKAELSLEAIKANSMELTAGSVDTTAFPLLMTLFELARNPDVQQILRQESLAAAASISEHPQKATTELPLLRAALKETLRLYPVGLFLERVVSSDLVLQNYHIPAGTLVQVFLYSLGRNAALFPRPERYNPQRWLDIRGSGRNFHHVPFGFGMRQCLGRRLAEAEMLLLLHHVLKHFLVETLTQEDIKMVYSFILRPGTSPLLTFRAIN
Text: In particular, the aldosterone synthase inhibitory activities in vitro can be determined by the following assay.
Human adrenocortical carcinoma NCI-H295R cell line is obtained from American Type Culture Collection (Manassas, Va.). Insulin/transferrin/selenium (ITS)-A supplement (100×), DMEM/F-12, antibiotic/antimycotic (100×), and fetal calf serum (FCS) are purchased from Gibco (Grand Island, N.Y.). Anti-mouse PVT scintillation proximity assay (SPA) beads and NBS 96-well plates are obtained from Amersham (Piscataway, N.J.) and Corning (Acton, Mass.), respectively. Solid black 96-well flat bottom plates were purchased from Costar (Corning, N.Y.). Aldosterone and angiotensin (Ang II) are purchased from Sigma (St. Louis, Mo.). D-[1,2,6,7-^3H(N)]aldosterone was acquired from PerkinElmer (Boston, Mass.). Nu-serum was a product of BD Biosciences (Franklin Lakes, N.J.).
For in vitro measurement of aldosterone activity, human adrenocortical carcinoma NCI-H295R cells are seeded in NBS 96-well plates at a density of 25,000 cells/well in 100 μl of a growth medium containing DMEM/F12 supplemented with 10% FCS, 2.5% Nu-serum, 1 μg ITS/ml, and 1× antibiotic/antimycotic. The medium is changed after culturing for 3 days at 37° C. under an atmosphere of 5% CO2/95% air. On the following day, cells are rinsed with 100 μl of DMEM/F12 and incubated with 100 μl of treatment medium containing 1 μM Ang II and a compound at different concentrations in quadruplicate wells at 37° C. for 24 hr. At the end of incubation, 50 μl of medium is withdrawn from each well for measurement of aldosterone production by an RIA using mouse anti-aldosterone monoclonal antibodies.
Measurement of aldosterone activity can also be performed using a 96-well plate format. Each test sample is incubated with 0.02 μCi of D-[1,2,6,7-^3H(N)]aldosterone and 0.3 μg of anti-aldosterone antibody in phosphate-buffered saline (PBS) containing 0.1% Triton X-100, 0.1% bovine serum albumin, and 12% glycerol in a total volume of 200 μl at room temperature for 1 hr. Anti-mouse PVT SPA beads (50 μl) are then added to each well and incubated overnight at room temperature prior to counting in a Microbeta plate counter. The amount of aldosterone in each sample is calculated by comparing with a standard curve generated using known quantities of the hormone.

CYP11B1 = target: T2, CYP11B1 (Homo sapiens, UniProt P15538); experiment: in vitro CYP11B1 inhibition, steroid release from NCI-H295R cells; assay type: cell-based; conditions: for inhibition at 0.1 µM: NCI-H295R, read-out: 11B1 % I @ 100 nM
T2 construct: Thus, the NCI-H295R cells have Cyp11 B1 (steroid 11 p-hydroxylase); host or cells: NCI-H295R
T2 sequence (P15538 25-503): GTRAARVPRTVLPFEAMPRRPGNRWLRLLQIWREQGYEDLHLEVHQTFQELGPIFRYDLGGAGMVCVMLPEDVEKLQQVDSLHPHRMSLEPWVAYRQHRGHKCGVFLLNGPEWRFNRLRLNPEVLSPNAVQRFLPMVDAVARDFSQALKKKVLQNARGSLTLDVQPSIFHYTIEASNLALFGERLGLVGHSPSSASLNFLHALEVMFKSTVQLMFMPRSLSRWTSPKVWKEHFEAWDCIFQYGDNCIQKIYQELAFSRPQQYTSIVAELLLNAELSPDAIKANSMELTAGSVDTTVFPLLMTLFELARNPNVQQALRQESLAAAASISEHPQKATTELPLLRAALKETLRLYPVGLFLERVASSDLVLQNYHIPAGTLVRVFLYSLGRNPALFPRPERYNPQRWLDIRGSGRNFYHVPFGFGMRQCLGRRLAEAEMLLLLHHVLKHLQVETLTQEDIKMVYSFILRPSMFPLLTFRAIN
Text: The in vitro inhibitory activities for CYP11B1 can be determined by the following assay.
The cell line NCI-H295R was originally isolated from an adrenocortical carcinoma and has been characterized in the literature through the stimulable secretion of steroid hormones and the presence of the enzymes essential for steroidogenesis. Thus, the NCI-H295R cells have Cyp11 B1 (steroid 11 p-hydroxylase). The cells show the physiological property of zonally undifferentiated human foetal adrenocortical cells which, however, have the capacity to produce the steroid hormones which are formed in the three, phenotypically distinguishable zones in the adult adrenal cortex.
The NCI-H295R cells (American Type Culture Collection, ATCC, Rockville, Md., USA) are grown in Dulbeoco's Modified Eagle'Ham F-12 Medium (DME/F12), which has been I supplemented with Ulroser SF Serum (Soprachem, Cergy-Saint-Christophe, France), insulin, transferrin, selenite (I-T-S, Becton Dickinson Biosciences, Franklin lakes, NJ, USA) and antibiotics in 75 cm^2 cell culture vessels at 37° C. and in a 95% air-5% carbon dioxide atmosphere. The cells are subsequently transferred for colony formation into a 24-well incubation vessel. They are cultivated there in DME/F12 medium, which is now supplemented with 0.1% bovine serum instead of Ultroser SF for 24 hours. The experiment is initiated by cultivating the cells in DME/F12 medium which is supplemented with 0.1% bovine serum albumin and test compound, in the presence or absence of cell stimulants, for 72 hours. The test substance is added in a concentration range from 0.2 nanomolar to […]. Cell stimulants which can be used are angiotensin 11 ([…] or 100 nanomolar), potassium ions (16 millimolar), forskolin (10 micromolar) or a combination of two stimulants.
The excretion of aldosterone, cortisol, corticosterone and estradiol/estrone into the culture medium can be detected and quantified by commercially available, specific monoclonal antibodies in radioimmunoassays in accordance with the manufacturer's instructions.
Inhibition of the release of certain steroids can be used as a measure of the respective enzyme inhibition by the added test compounds. The dose-dependent inhibition of enzymic activity by a compound is calculated by means of an inhibition plot which is characterized by an IC50.
The IC50 values for active test compounds are ascertained by a […] in order to construct inhibition plots without data weighting. The inhibition plot is calculated by fting a 4-parameter logistic function to the raw data points using the least squares method. The equation of the 4-parameter logistic function is calculated as follows: Y=(d−a)/((1+(x/c)b))+a I where: a=minimum data level b=gradient I c=ICED, d=maximum data level x=inhibitor concentration.

Which results are given for `COC(=O)c1cncn1[C@H]1c2ccccc2[C@@H](O)CC1(C)C` (relative stereo) [Compound 11, 3-(cis-4-Hydroxy-2,2-dimethyl-1,2,3,4-tetrahydro-naphthalen-r-1-yl)-3H-imidazole-4-carboxylic acid methyl ester]?
IC50 [1]: 59 nM; 11B1 % I @ 100 nM (CYP11B1): 100%

With `COC(=O)c1cncn1[C@H]1c2ccccc2[C@@H](O)CC1(C)C` (relative stereo) [Compound 12, 3-(cis-4-Hydroxy-2,2-dimethyl-1,2,3,4-tetrahydro-naphthalen-r-1-yl)-3H-imidazole-4-carboxylic acid methyl ester] as the molecule, how does the IC50 [1] read?
The IC50 was 14 nM.

Which results are given for `CC(C)OC(=O)c1cncn1C1CCCc2ccccc21` (single isomer, unassigned) [Compound 1, 3-(1,2,3,4-Tetrahydro-naphthalen-1-yl)-3H-imidazole-4-carboxylic acid isopropyl ester]?
IC50 [1]: 44 nM; inhibition at 0.1 µM (CYP11B1): 99%

For `CC(C)OC(=O)c1cncn1C1CCCc2ccc(C(=O)N3CCCC3)cc21` (single isomer, unassigned) [Compound 3, 3-[7-(Pyrrolidine-1-carbonyl)-1,2,3,4-tetrahydro-naphthalen-1-yl]-3H-imidazole-4-carboxylic acid isopropyl ester], which IC50 [1] is on record?
Its IC50 is 215 nM.

And the inhibition at 0.1 µM (CYP11B1)?
The inhibition at 0.1 µM was 87%.

How did the IC50 [1] turn out when `CCc1cncn1C1CCC(C)(C)c2ccccc21` (single isomer, unassigned) [Compound 8, 1-(4,4-Dimethyl-1,2,3,4-tetrahydro-naphthalen-1-yl)-5-ethyl-1H-imidazole] was run?
The IC50 was 35 nM.

And the inhibition at 0.1 µM (CYP11B1)?
The inhibition at 0.1 µM was 100%.

How did the IC50 [1] turn out when `CCc1cncn1C1CCC(C)(C)c2ccccc21` (single isomer, unassigned) [Compound 9, 1-(4,4-Dimethyl-1,2,3,4-tetrahydro-naphthalen-1-yl)-5-ethyl-1H-imidazole] was run?
Its IC50 is 6 nM.

What about the “11B1 % I @ 100 nM” value (CYP11B1) of the same molecule?
The value was 100%.

For `COC(=O)c1cncn1C1c2ccccc2C(=O)CC1(C)C` (single isomer, unassigned) [Compound 10, 3-(2,2-Dimethyl-4-oxo-1,2,3,4-tetrahydro-naphthalen-1-yl)-3H-imidazole-4-carboxylic acid methyl ester], which IC50 [1] is on record?
The IC50 was 27 nM.

What about the inhibition at 0.1 µM (CYP11B1) of the same molecule?
Its inhibition at 0.1 µM is 99%.

What does the source list for `CC(C)OC(=O)c1cncn1C1CCOc2ccccc21` (single isomer, unassigned) [Compound 15, 3-Chroman-4-yl-3H-imidazole-4-carboxylic acid isopropyl ester]?
IC50 [1]: 103 nM; inhibition at 0.1 µM (CYP11B1): 65%

With `CC(C)OC(=O)c1cncn1C1CCOc2ccccc21` (single isomer, unassigned) [Compound 16, 3-Chroman-4-yl-3H-imidazole-4-carboxylic acid isopropyl ester] as the molecule, how does the IC50 [1] read?
The IC50 was 150 nM.

For `CCC(=O)Oc1cncn1C1CCCc2ccccc21` (stereo not drawn) [Compound 2, Propionic acid 3-(1,2,3,4-tetrahydro-naphthalen-1-yl)-3H-imidazol-4-yl ester], which IC50 [1] is on record?
The IC50 was 21 nM.

With `CC(=O)Nc1ccc2c(c1)CCCC2n1cncc1C(=O)OC(C)C` (stereo not drawn) [Compound 4, 3-(6-Acetylamino-1,2,3,4-tetrahydro-naphthalen-1-yl)-3H-imidazole-4-carboxylic acid isopropyl ester] as the molecule, how does the IC50 [1] read?
The IC50 was 85 nM.

Which IC50 [1] does the source give for `CC(C)OC(=O)c1cncn1C1CCCc2ccc(N(C)S(C)(=O)=O)cc21` (stereo not drawn) [Compound 5, 3-(7-Methanesulfonyl-methyl-amino-1,2,3,4-tetrahydro-naphthalen-1-yl)-3H-imidazole-4-carboxylic acid isopropyl ester] here?
The IC50 was 352 nM.

`CC(C)OC(=O)c1cncn1C1CCCc2ccc(C#N)cc21` (stereo not drawn) [Compound 6, 3-(7-Cyano-1,2,3,4-tetrahydro-naphthalen-1-yl)-3H-imidazole-4-carboxylic acid isopropyl ester] was tested. Which IC50 [1] did it give?
The IC50 was 197 nM.

For `CC(C)OC(=O)c1cncn1C1CCCc2cc(C3CC3)ccc21` (stereo not drawn) [Compound 7, 3-(6-Cyclopropyl-1,2,3,4-tetrahydro-naphthalen-1-yl)-3H-imidazole-4-carboxylic acid isopropyl ester], which IC50 [1] is on record?
The IC50 was 268 nM.

`COC(=O)c1cncn1C1c2ccccc2C(NCc2ccccc2)CC1(C)C` (stereo not drawn) [Compound 13, 3-(4-Benzylamino-2,2-dimethyl-1,2,3,4-tetrahydro-naphthalen-1yl)-3H-imidazole-4-carboxylic acid methyl ester] was tested. Which IC50 [1] did it give?
The IC50 was 696 nM.

And the inhibition at 0.1 µM (CYP11B1)?
The inhibition at 0.1 µM was 60%.

For `CC1(C)CSc2ccccc2C1n1ccnc1` (stereo not drawn) [Compound 14, 1-(3,3-Dimethyl-thiochroman-4-yl)-1H-imidazole], which IC50 [1] is on record?
The IC50 was 125 nM.

And the inhibition at 0.1 µM (CYP11B1)?
The inhibition at 0.1 µM was 92%.

With `c1ccc(COc2cncn2C2CSCc3ccccc32)cc1` (stereo not drawn) [Compound 18, 5-Benzyloxy-1-isothiochroman-4-yl-1H-imidazole] as the molecule, how does the IC50 [1] read?
Its IC50 is 152 nM.

`CC1(C)Cc2ccccc2C1n1cncc1C(=O)NCc1ccccc1` (stereo not drawn) [Compound 19, 3-(2,2-Dimethyl-indan-1-yl)-3H-imidazole-4-carboxylic acid benzylamide] was tested. Which IC50 [1] did it give?
Its IC50 is 17 nM.

For `CC1(C)Cc2ccccc2C1n1cncc1C(=O)NCCO` (stereo not drawn) [Compound 20, 3-(2,2-Dimethyl-indan-1-yl)-3H-imidazole-4-carboxylic acid (2-hydroxy-ethyl)-amide], which IC50 [1] is on record?
Its IC50 is 6 nM.

For `Cc1noc(-c2cncn2C2c3ccccc3CC2(C)C)n1` (stereo not drawn) [Compound 21, 5-[3-(2,2-Dimethyl-indan-1-yl)-3H-imidazol-4-yl]-3-methyl-[1,2,4]oxadiazole], which IC50 [1] is on record?
Its IC50 is 129 nM.

What about the inhibition at 0.1 µM (CYP11B1) of the same molecule?
The inhibition at 0.1 µM was 98%.
